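The compound was tested at five concentrations on cells cultured in 96-well plates, with a 48-hour exposure period. Abbreviation: GI50, concentration required for 50% inhibition of growth.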 Calls of active or inactive are those of the source. Rule as the data show it: active = GI50 up to about 1.1 µM and inactive = higher.
Legend:
Experiment in all cases: NCI anticancer screen, dose series, 48 h
COLO 205 = system: COLO 205
SF-295 = system: SF-295
HOP-62 = system: HOP-62
HCC 2998 = system: HCC 2998
SF-539 = system: SF-539
TK-10 = system: TK-10
M14 = system: M14
OVCAR-5 = system: OVCAR-5
HOP-92 = system: HOP-92
Malme-3M = system: Malme-3M
SK-MEL-2 = system: SK-MEL-2
SNB-78 = system: SNB-78
UACC-62 = system: UACC-62
HT-29 = system: HT-29
A498 = system: A498

Measured: GI50

c1ccc2c(c1)Cc1c(Cc3csc4ccccc34)ccc3cccc-2c13
inactive: COLO 205 > 100 µM | SF-295 > 100 µM | HOP-62 > 100 µM | HCC 2998 > 100 µM | SF-539 > 100 µM | TK-10 > 10 µM | M14 > 100 µM | OVCAR-5 > 100 µM | HOP-92 > 100 µM | Malme-3M > 100 µM | SK-MEL-2 > 100 µM | SNB-78 94.4 µM | UACC-62 > 100 µM | HT-29 > 100 µM

CCc1cccc(C)c1NC(=O)CCc1n[nH]c(=S)o1
inactive: COLO 205 44.6 µM | SF-295 > 100 µM | HOP-62 > 100 µM | HCC 2998 > 100 µM | SF-539 > 100 µM | TK-10 > 100 µM | M14 > 100 µM | OVCAR-5 > 100 µM | HOP-92 > 100 µM | Malme-3M > 100 µM | A498 > 100 µM | SNB-78 > 100 µM | UACC-62 > 100 µM | HT-29 95.5 µM

O=C1CCC(=O)N2CCCCN12
inactive: COLO 205 > 100 µM | SF-295 > 100 µM | HOP-62 > 100 µM | HCC 2998 > 100 µM | SF-539 > 100 µM | TK-10 > 100 µM | M14 > 100 µM | OVCAR-5 > 100 µM | HOP-92 > 100 µM | Malme-3M > 100 µM | A498 > 100 µM | SK-MEL-2 > 100 µM | SNB-78 > 100 µM | UACC-62 > 100 µM | HT-29 > 100 µM

CN(CCCN1C(=O)c2cccc3cc([N+](=O)[O-])cc(c23)C1=O)CCN(C)CCCN1C(=O)c2cccc3cc([N+](=O)[O-])cc(c23)C1=O
inactive: COLO 205 23.4 µM | SF-295 22.3 µM | HOP-62 31.8 µM | HCC 2998 21.2 µM | SF-539 29.7 µM | TK-10 > 39.3 µM | M14 > 39.3 µM | OVCAR-5 > 39.3 µM | Malme-3M 25.9 µM | A498 > 39.3 µM | SK-MEL-2 13.3 µM | SNB-78 > 39.3 µM | UACC-62 17 µM | HT-29 7.67 µM

O=C(Cc1nc2ccccc2s1)C(=O)Nc1ccc(Cl)cc1
inactive: COLO 205 > 100 µM | SF-295 > 100 µM | HOP-62 > 100 µM | HCC 2998 > 100 µM | SF-539 > 100 µM | TK-10 > 100 µM | M14 > 100 µM | OVCAR-5 > 100 µM | HOP-92 > 100 µM | Malme-3M > 100 µM | A498 > 100 µM | SK-MEL-2 > 100 µM | SNB-78 > 100 µM | UACC-62 > 100 µM | HT-29 > 100 µM

CC1C=C(OC(=O)c2ccccc2)C(=O)C(n2cc(F)c(=O)[nH]c2=O)O1 (stereo not drawn)
inactive: COLO 205 50.9 µM | SF-295 > 100 µM | HOP-62 27.8 µM | HCC 2998 5.56 µM | SF-539 13.9 µM | TK-10 > 100 µM | M14 51.3 µM | OVCAR-5 > 100 µM | HOP-92 > 100 µM | Malme-3M 51.2 µM | A498 > 100 µM | SK-MEL-2 79.3 µM | SNB-78 > 100 µM | UACC-62 79.4 µM | HT-29 18.9 µM

CCOC(=O)C12CCCC1(O)N(NC(=O)OC(C)(C)C)C(C)=C2C(=O)OC (stereo not drawn)
inactive: COLO 205 > 100 µM | SF-295 > 100 µM | HOP-62 > 100 µM | HCC 2998 > 100 µM | SF-539 > 100 µM | TK-10 > 100 µM | M14 > 100 µM | OVCAR-5 > 100 µM | HOP-92 > 100 µM | Malme-3M > 100 µM | A498 > 100 µM | SK-MEL-2 > 100 µM | SNB-78 > 100 µM | UACC-62 > 100 µM | HT-29 > 100 µM

NC(N)NCCCc1cn2c(n1)C1CCCN1C(=O)C2Cc1ccccc1 (stereo not drawn)
inactive: COLO 205 > 100 µM | SF-295 > 100 µM | HOP-62 > 100 µM | HCC 2998 > 100 µM | SF-539 > 100 µM | TK-10 > 100 µM | M14 > 100 µM | OVCAR-5 > 100 µM | Malme-3M > 100 µM | A498 > 100 µM | SK-MEL-2 > 100 µM | SNB-78 > 100 µM | UACC-62 > 100 µM | HT-29 > 100 µM

CC(=O)O[C@H]1CC[C@@]2(C)C(=CC[C@H]3C(CC#N)[C@@](C)(C#N)CCC32)C1 (stereo partly drawn)
inactive: COLO 205 > 100 µM | SF-295 > 100 µM | HOP-62 > 100 µM | HCC 2998 > 100 µM | SF-539 > 100 µM | TK-10 > 100 µM | M14 > 100 µM | OVCAR-5 > 100 µM | HOP-92 16.1 µM | Malme-3M > 100 µM | A498 38.5 µM | SK-MEL-2 > 100 µM | SNB-78 47.6 µM | UACC-62 > 100 µM | HT-29 > 100 µM

COc1ccc(/C=C/c2cc(OC)c(OC(C)=O)c(OC)c2)cc1
inactive: COLO 205 68.1 µM | HOP-62 25.9 µM | HCC 2998 20.7 µM | SF-539 > 10 µM | M14 34.6 µM | OVCAR-5 1.94 µM | HOP-92 28.1 µM | Malme-3M 26.3 µM | SK-MEL-2 37.2 µM | SNB-78 22 µM | UACC-62 20.1 µM | HT-29 26.5 µM
